# Laboratory results from patent US8603755B2, “Resistance to auxinic herbicides” (Dow AgroSciences, LLC., priority 2006, dated 2013).
# Tests used:
# Format in all cases: in vivo
# [1] = test system: Arabidopsis Group 1 line R127; assay: Root growth dose response of Group 1 line R127
# Description: (§1) The dose responses of root growth of the mutant lines treated with a variety of auxins were measured to define the level and chemical spectrum of resistance in detail.
# Four additional herbicidal compounds were also tested on the Group 1 line, R127.
# [2] = test system: Group 1 mutant R009 Arabidopsis plants; assay: Foliar spray application in the greenhouse, AFB5 mutant; conditions: 12 days after treatment
# Description: (§2) FIGS. 8A-8C show a comparison of the effect of a foliar application of 200 g/ha picloram (FIG. 8A), 200 g/ha aminopyralid (FIG. 8B) or 50 g/ha 2,4-D (FIG. 8C) on wild type Col-0 and mutant R009 Arabidopsis plants. Pictures were taken 12 days after treatment of 17-day old plants.
# (§3) Arabidopsis seedlings were grown for two weeks in a growth chamber (23° C.; continuous light at 120-150 μE m^−2 sec^−1), then taken to the greenhouse for three days after which plants were sprayed with herbicide using a track-sprayer to deliver the appropriate rate. Plants were then grown in the greenhouse for 12 days (22° C. under supplemented light with a 14 h: 10 h light-dark cycle) prior to photography and evaluation. […] Thus the chemical selectivity of resistance seen in seedling plate assays is maintained in adult plants with foliar exposure to the auxin herbicides.
# [3] = test system: wild type Col-0 Arabidopsis plants; assay: Foliar spray application in the greenhouse, wild type; conditions: 12 days after treatment
# Description: as §2, §3
# [4] = test system: Arabidopsis mutant line R090; assay: Seedling resistance screen, line R090; conditions: line R090, allelic to axr1-3
# Description: (§4) To identify mutants resistant to picolinate auxins, EMS-mutagenized M2 seedlings were screened for resistance to DAS534, a 6-phenylpicolinate auxin (Compound 173 in WO 03/011853A1). The seedlings were grown on agarose medium containing 10 nM DAS534. This concentration was sufficient to produce marked auxinic effects on the seedlings including significant inhibition (60%) of root growth. From a total of 780,100 EMS M2 seedlings, 125 putative resistant mutants were identified by visual inspection. Seeds were recovered from 33 of these plants. Selection of lines for further study was based on the strength of resistance, elimination of potential siblings and the health and fertility of adult plants.
# The mutants were crossed with wild-type Col-0 plants and the progeny were analyzed for resistance to DAS534. […] To determine the number of genetic loci identified in this screen, complementation tests were performed by crossing the herbicide-resistant mutants with each other and the known auxin-resistant mutant axr1-3 in a pair-wise fashion. […] Complementation Group 1 contained the mutants R009, R024, R045 and R127, and complementation Group 2 contained the mutants R051, R107 and R118. All seven selectively-resistant mutant lines were phenotypically normal when grown on agarose medium or in soil and they had normal fertility. […]
# [5] = test system: Arabidopsis seedlings (wild type / EMS M2); assay: Seedling plate assay on agarose medium, root growth and morphology
# Description: FIGS. 1A-1D. Differential effects of auxins on root growth of mutants from complementation Groups 1 and 2. Root lengths of Arabidopsis seedlings were measured 8 days after seeding on plates containing a range of concentrations of the test compounds and are plotted as a percentage of the root length of untreated plants in the same experiment. Typical root lengths for untreated controls were 21, 21 and 24 mm for wild-type, Group 1, and Group 2 plants respectively. The symbols used for wild type, R009 from complementation Group 1 and R051 from complementation Group 2 are denoted in FIG. 1A.
# as §4
# [6] = test system: Arabidopsis mutant axr1-3; assay: Root growth response of mutant axr1-3
# Description: (§5) FIGS. 5A-5C. Comparison of the effect of DAS534 and 2,4-D on previously characterized mutants. Measurements were performed as described in FIG. 2. Typical root lengths for untreated controls were 20, 39 and 31 mm for tir1-1, axr2-1 and axr1-3 plants respectively. (FIG. 5A) Effect of DAS534 on edm1 and R051. The deletion mutant line edm1 lacks seven genes (At4g11220 through At4g11280) including SGT1b (Tor et al., Plant Cell 14: 993-1003, 2002). Effect of DAS534 (FIG. 5B) and 2,4-D (FIG. 5C) on axr1-3, axr2-1 and tir1-1 compared with R009 and R051.
# The mutant axr1-3 is defective in the rubinylation mechanism required to activate SCF complexes. […] The axr1-3 mutant was also very resistant to picloram (160-fold). […] This is consistent with its general role in the activation of SCF complexes (Schwechheimer et al., Plant Cell. 14(10):2553-2563, 2002).
# [7] = test system: Arabidopsis Group 1 (afb5) and Group 2 (sgt1b) mutant lines; assay: Root growth dose response of picolinate auxin resistant mutants, complementation Groups 1 and 2
# Description: FIGS. 1A-1D. […] Root lengths of Arabidopsis seedlings were measured 8 days after seeding on plates containing a range of concentrations of the test compounds and are plotted as a percentage of the root length of untreated plants in the same experiment. […] The symbols used for wild type, R009 from complementation Group 1 and R051 from complementation Group 2 are denoted in FIG. 1A.
# To identify mutants resistant to picolinate auxins, EMS-mutagenized M2 seedlings were screened for resistance to DAS534, a 6-phenylpicolinate auxin (Compound 173 in WO 03/011853A1). The seedlings were grown on agarose medium containing 10 nM DAS534. […] Selection of lines for further study was based on the strength of resistance, elimination of potential siblings and the health and fertility of adult plants.
# as §1
# [8] = test system: Arabidopsis mutant tir1-1; assay: Root growth response of mutant tir1-1
# Description: as §5
# [9] = test system: Arabidopsis deletion mutant line edm1; assay: Root growth response of deletion mutant edm1; conditions: edm1, data not shown
# Description: as §5
# The R051 mutation was mapped to a 100 kb interval on chromosome 4 around 36 cM between markers C4—36 and C4—37 (FIG. 3). This interval contains 17 genes including At4g11260 which encodes the tetratricopeptide-repeat containing protein, SGT1b (SEQ ID NO: 4). […] The deletion mutant line edm1 lacks seven genes (At4g11220 through At4g11280) including SGT1b (Tor et al., Plant Cell 14: 993-1003, 2002). […] It was also very cross-resistant to picloram (20-fold, data not shown) similar to the Group 2 mutants. To determine if the DAS534-resistant mutants in complementation Group 2 contained mutations in SGT1b, At4g11260 was PCR amplified from genomic DNA from all three of the mutants. […]
structure (smiles),measurement,setting,value
O=C(O)Cc1cccc2ccccc12 [1-naphthylacetic acid],"resistance or difference in response, in words",[1],no resistance
O=C(O)c1ccccc1C(=O)Nc1cccc2ccccc12 [napthylphthalamic acid],"resistance or difference in response, in words",[1],no difference in response
Nc1cc(Cl)nc(C(=O)O)c1Cl [aminopyralid],effect of foliar spray application,[2]; 200 g/ha,minimal effect
same,effect of foliar spray application,"[3]; 200 g/ha, wild type Col-0",profound morphological effects and severely inhibited plant growth
"Nc1c(F)c(-c2ccc(Cl)cc2)nc(C(=O)O)c1Cl [DAS534, 4-amino-3-chloro-5-fluoro-6-(4-chlorophenyl)pyridine-2-carboxylic acid]",resistance of line R090,[4],robust resistance
same,inhibition at 0.01 µM,"[5]; Arabidopsis thaliana, 10 nM DAS534 in agarose medium",60%
same,visible auxinic effects on seedlings,"[5]; wild-type plants, 5 nM DAS534","slight agravitopism, have elongated hypocotyls and are unable to fully expand their cotyledons"
same,"level of resistance, in words",[6],high level of resistance
same,hypocotyl elongation and cotyledon expansion,"[7]; Group 1 mutant R127 and Group 2 mutant R051, 5 nM DAS534",unaffected
same,"level of resistance, in words",[8],modest level of resistance
"O=C(O)COc1ccc(Cl)cc1Cl [2,4-D]",effect of foliar spray application,[2]; 50 g/ha,auxinic symptoms and growth reduction
same,resistance of line R090,[4],robust resistance
same,"level of resistance, in words",[6],high level of resistance
same,effect of foliar spray application,"[3]; 50 g/ha, wild type",auxinic symptoms and growth reduction
same,cross resistance of DAS534-resistant lines,"[7]; 0.045 μM 2,4-D, seven lines R009, R024, R045, R127, R051, R107, R118",negligible resistance
same,"resistance of the mutant lines, in words","[7]; root growth dose response, both complementation groups",negligible resistance
same,"level of resistance, in words",[8],"significantly lower levels of resistance to 2,4-D than axr1"
O=C(O)c1nc(Cl)ccc1Cl [clopyralid],fold resistance,[1],50 fold
COc1c(Cl)ccc(Cl)c1C(=O)O [dicamba],"resistance or difference in response, in words",[1],no resistance
Nc1c(Cl)c(Cl)nc(C(=O)O)c1Cl [picloram],effect of foliar spray application,[2]; 200 g/ha,minimal effect
same,cross-resistance,[9],20 fold
same,fold resistance,[6],160 fold
same,effect of foliar spray application,"[3]; 200 g/ha, wild type Col-0",profound morphological effects and severely inhibited plant growth
same,"level of resistance, in words",[8],slightly more resistant
